# Results: patent US20250352549A1, “SUBSTITUTED HETEROCYCLIC COMPOUND DERIVATIVES AND THEIR PHARMACEUTICAL USE” (AVELOS THERAPEUTICS INC., priority 0001, published 2025)
# Biological target: Wild-type human active MASTL (Homo sapiens (Human), UniProt Q96GX5)
# Test: MASTL activity assay
# Assay type: biochemical
# Conditions: ATP 18 μM, biotin tagged 40-mer ENSA peptide 10 nM, 60 minutes at room temperature, HTRF/FRET readout
# Procedure: Wild-type human active MASTL (154 pM) was incubated in assay buffer (50 mM HEPES, 100 mM NaCl, 0.1 mM EGTA, 10 mM MgCl2, 0.01% Tween-20, 0.5 mM TCEP, pH 7.5) with biotin tagged 40-mer ENSA peptide (10 nM), test compound and ATP (18 μM) for 60 minutes at room temperature. Test compounds were assayed using a 12-point dose range consisting of a 0, DMSO control and 10 sequential doses consisting from 0.0005, 0.002, 0.005, 0.014, 0.04, 0.12, 0.37, 1.11, 3.33 and 10 μM. The DMSO concentration was the same (1%) in all samples. An equal volume of detection buffer (assay buffer+267.5 pM Ab-K, 1.25 nM SA-D2, 20 mM EDTA and 400 mM KF) was added to stop the reaction to make a final volume of 20 μl, RT for 60 mins. Activity was measured using a plate reader (PerkinElmer EnSight) by the FRET signal generated between SA-D2 (streptavidin-D2) and Ab-K (anti-phospho-Serine 67 ENSA antibody (rabbit polyclonal, using standard techniques by a commercial supplier) conjugated to Cryptate). HTRF reagents (CisBio) were prepared as per the manufacturer recommendations. The 40-mer biotin-tagged ENSA peptide (synthesised by Bionics) used was based around Serine 67 on ENSA ([…]).
# Chain of Wild-type human active MASTL (Q96GX5 whole entry): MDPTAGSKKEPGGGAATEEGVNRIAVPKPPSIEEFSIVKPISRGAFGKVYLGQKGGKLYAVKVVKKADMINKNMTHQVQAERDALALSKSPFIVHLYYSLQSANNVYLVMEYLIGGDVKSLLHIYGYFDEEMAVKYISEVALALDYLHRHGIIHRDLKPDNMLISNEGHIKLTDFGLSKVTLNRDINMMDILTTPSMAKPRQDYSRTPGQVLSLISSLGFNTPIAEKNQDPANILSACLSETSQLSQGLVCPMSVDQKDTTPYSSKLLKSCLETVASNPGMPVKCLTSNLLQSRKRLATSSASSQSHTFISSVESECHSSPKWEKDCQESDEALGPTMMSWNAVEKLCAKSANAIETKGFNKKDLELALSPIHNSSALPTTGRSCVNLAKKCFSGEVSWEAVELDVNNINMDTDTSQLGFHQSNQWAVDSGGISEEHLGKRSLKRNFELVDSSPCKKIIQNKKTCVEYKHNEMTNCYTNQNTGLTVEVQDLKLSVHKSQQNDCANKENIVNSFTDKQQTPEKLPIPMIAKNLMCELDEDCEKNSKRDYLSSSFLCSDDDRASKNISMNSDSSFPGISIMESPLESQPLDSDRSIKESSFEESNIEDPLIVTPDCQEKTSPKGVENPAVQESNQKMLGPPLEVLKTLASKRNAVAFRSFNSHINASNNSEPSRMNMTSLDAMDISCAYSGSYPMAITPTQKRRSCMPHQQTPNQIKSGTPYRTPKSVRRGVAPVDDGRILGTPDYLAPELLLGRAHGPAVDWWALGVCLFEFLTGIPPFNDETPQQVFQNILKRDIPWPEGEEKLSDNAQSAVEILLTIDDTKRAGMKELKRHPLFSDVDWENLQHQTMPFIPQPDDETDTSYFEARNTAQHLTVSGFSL
row,SMILES,IC50
1,"Cc1ncc2ccc(-c3nc(N)nc(NC(c4c[nH]c(C(F)(F)F)n4)C4CCCCC4)n3)cn12 (single isomer, unassigned) [Example 153B, N4-[(S or R)-cyclohexyl-[2-(trifluoromethyl)-1H-imidazol-4-yl]methyl]-6-(3-methylimidazo[1,5-a]pyridin-6-yl)-1,3,5-triazine-2,4-diamine]",1 to 500 nM
2,"Cc1ncc2ccc(-c3nc(N)nc(N[C@@H](c4ccc(F)cn4)C(C)C)n3)cn12 (single isomer, unassigned) [Example 136A, N2-[(1R or 1S)-1-(5-fluoro-2-pyridyl)-2-methyl-propyl]-6-(3-methylimidazo[1,5-a]pyridin-6-yl)-1,3,5-triazine-2,4-diamine]",1 to 500 nM
3,"Cc1ncc2ccc(-c3nc(N)nc(N[C@@H](c4c[nH]c(C(F)(F)F)n4)C(C)C)n3)cn12 (single isomer, unassigned) [Example 142A, 6-(3-methylimidazo[1,5-a]pyridin-6-yl)-N2-[(1R or 1S)-2-methyl-1-[2-(trifluoromethyl)-1H-imidazol-4-yl]propyl]-1,3,5-triazine-2,4-diamine]",1 to 500 nM
4,"Cc1ncc2ccc(-c3nc(N)nc(N[C@H](CC(C)C)c4c[nH]c(C(F)(F)F)n4)n3)cn12 (single isomer, unassigned) [Example 152A, 6-(3-methylimidazo[1,5-a]pyridin-6-yl)-N4-[(1S or 1R)-3-methyl-1-[2-(trifluoromethyl)-1H-imidazol-4-yl]butyl]-1,3,5-triazine-2,4-diamine]",1 to 500 nM
5,"CC[C@@H](Nc1nc(N)nc(-c2ccc3cnc(C)n3c2)n1)c1ccc(F)nc1 (single isomer, unassigned) [Example 141A, N2-[(1R or 1S)-1-(6-fluoro-3-pyridyl)propyl]-6-(3-methylimidazo[1,5-a]pyridin-6-yl)-1,3,5-triazine-2,4-diamine]",500 to 1000 nM
6,"Cc1ncc2ccc(-c3nc(N)nc(N[C@H](c4ccc(F)cn4)C(C)C)n3)cn12 (single isomer, unassigned) [Example 136B, N2-[(1R or 1S)-1-(5-fluoro-2-pyridyl)-2-methyl-propyl]-6-(3-methylimidazo[1,5-a]pyridin-6-yl)-1,3,5-triazine-2,4-diamine]",> 1000 nM
7,"CNc1nc(NC[C@H](O)c2cccc(Cl)c2Cl)cc(-c2ccc3cnc(C)n3c2)n1 (single isomer, unassigned) [Example 143A, (1R or 1S)-1-(2,3-dichlorophenyl)-2-[[2-(methylamino)-6-(3-methylimidazo[1,5-a]pyridin-6-yl)pyrimidin-4-yl]amino]ethanol]",1 to 500 nM
8,"Cc1ncc2ccc(-c3nc(N)nc(NC[C@H](O)c4cccc(Cl)c4Cl)n3)cn12 (single isomer, unassigned) [Example 146A, (1S or 1R)-[[4-amino-6-(3-methylimidazo[1,5-a]pyridin-6-yl)-1,3,5-triazin-2-yl]amino]-1-(2,3-dichlorophenyl) ethanol]",1 to 500 nM
9,"Cc1ncc2ccc(-c3nc(N)nc(N[C@@H](CC4CC4)c4c[nH]c(C(F)(F)F)n4)n3)cn12 (single isomer, unassigned) [Example 7B, N4-[(1S or 1R)-2-cyclopropyl-1-[2-(trifluoromethyl)-1H-imidazol-4-yl]ethyl]-6-(3-methylimidazo[1,5-a]pyridin-6-yl)-1,3,5-triazine-2,4-diamine]",1 to 500 nM
10,"CNc1nc(N[C@H](c2c[nH]c(C(F)(F)F)n2)C(C)C)nc(-c2ccc3cnc(C)n3c2)n1 (single isomer, unassigned) [Example 149B, N2-methyl-6-(3-methylimidazo[1,5-a]pyridin-6-yl)-N4-[(1S or 1R)-2-methyl-1-[2-(trifluoromethyl)-1H-imidazol-4-yl]propyl]-1,3,5-triazine-2,4-diamine]",1 to 500 nM
11,"Cc1ncc2ccc(-c3nc(N)nc(NC(c4c[nH]c(C(F)(F)F)n4)C4CCCCC4)n3)cn12 (single isomer, unassigned) [Example 153A, N4-[(S or R)-cyclohexyl-[2-(trifluoromethyl)-1H-imidazol-4-yl]methyl]-6-(3-methylimidazo[1,5-a]pyridin-6-yl)-1,3,5-triazine-2,4-diamine]",1 to 500 nM
12,"CC(C)CC(Nc1nc(N)nc(-c2ccc3cnn(C)c3c2)n1)c1c[nH]c(C(F)(F)F)n1 (single isomer, unassigned) [Example 180B, 6-(1-methylindazol-6-yl)-N4-[(1R or 1S)-3-methyl-1-[2-(trifluoromethyl)-1H-imidazol-4-yl]butyl]-1,3,5-triazine-2,4-diamine]",1 to 500 nM
13,"CC[C@H](Nc1nc(N)nc(-c2ccc3cnc(C)n3c2)n1)c1ccc(F)nc1 (single isomer, unassigned) [Example 141B, N2-[(1R or 1S)-1-(6-fluoro-3-pyridyl)propyl]-6-(3-methylimidazo[1,5-a]pyridin-6-yl)-1,3,5-triazine-2,4-diamine]",500 to 1000 nM
14,"Cc1nc([C@@H](Nc2nc(N)nc(-c3ccc4cnc(C)n4c3)n2)C(C)C)c[nH]1 (single isomer, unassigned) [Example 155B, 6-(3-methylimidazo[1,5-a]pyridin-6-yl)-N4-[(1S or 1R)-2-methyl-1-(2-methyl-1H-imidazol-4-yl)propyl]-1,3,5-triazine-2,4-diamine]",1 to 500 nM
15,"Cc1ncc2ccc(-c3nc(N)nc(N[C@H](CC4CC4)c4c[nH]c(C(F)(F)F)n4)n3)cn12 (single isomer, unassigned) [Example 7A, N4-[(1S or 1R)-2-cyclopropyl-1-[2-(trifluoromethyl)-1H-imidazol-4-yl]ethyl]-6-(3-methylimidazo[1,5-a]pyridin-6-yl)-1,3,5-triazine-2,4-diamine]",1 to 500 nM
16,"CNc1nc(N[C@@H](c2ccn(C(F)F)n2)C(C)C)nc(-c2ccc3cnn(C)c3c2)n1 (single isomer, unassigned) [Example 29A, N4-[(1S or 1R)-1-[1-(difluoromethyl)pyrazol-3-yl]-2-methyl-propyl]-N2-(trideuteriomethyl)-6-[1-(trideuteriomethyl)indazol-6-yl]-1,3,5-triazine-2,4-diamine]",1 to 500 nM
17,"Cc1ncc2ccc(-c3nc(N)nc(NC[C@@H](O)c4cccc(Cl)c4Cl)n3)cn12 (single isomer, unassigned) [Example 146B, (1S or 1R)-[[4-amino-6-(3-methylimidazo[1,5-a]pyridin-6-yl)-1,3,5-triazin-2-yl]amino]-1-(2,3-dichlorophenyl) ethanol]",1 to 500 nM
18,"CNc1nc(NCC(O)c2cccc(Cl)c2Cl)cc(-c2ccc3cnc(C)n3c2)n1 (single isomer, unassigned) [Example 143B, (1R or 1S)-1-(2,3-dichlorophenyl)-2-[[2-(methylamino)-6-(3-methylimidazo[1,5-a]pyridin-6-yl)pyrimidin-4-yl]amino]ethanol]",> 1000 nM
19,"CNc1nc(N[C@H](c2ccn(C(F)F)n2)C(C)C)nc(-c2ccc3cnn(C)c3c2)n1 (single isomer, unassigned) [Example 29B, N4-[(1S or 1R)-1-[1-(difluoromethyl)pyrazol-3-yl]-2-methyl-propyl]-N2-(trideuteriomethyl)-6-[1-(trideuteriomethyl)indazol-6-yl]-1,3,5-triazine-2,4-diamine]",> 1000 nM
20,"Cc1ncc2ccc(-c3nc(N)nc(N[C@@H](CC(C)C)c4c[nH]c(C(F)(F)F)n4)n3)cn12 (single isomer, unassigned) [Example 152B, 6-(3-methylimidazo[1,5-a]pyridin-6-yl)-N4-[(1S or 1R)-3-methyl-1-[2-(trifluoromethyl)-1H-imidazol-4-yl]butyl]-1,3,5-triazine-2,4-diamine]",1 to 500 nM
21,"CC(C)C(Nc1nc(N)nc(-c2ccc3c(cnn3C)c2)n1)c1ccn(C(F)F)n1 (single isomer, unassigned) [Example 47A, (R or S)—N2-(1-(1-(difluoromethyl)-1H-pyrazol-3-yl)-2-methylpropyl)-6-(1-methyl-1H-indazol-5-yl)-1,3,5-triazine-2,4-diamine]",1 to 500 nM
22,"CNc1nc(N[C@@H](c2c[nH]c(C(F)(F)F)n2)C(C)C)nc(-c2ccc3cnc(C)n3c2)n1 (single isomer, unassigned) [Example 149A, N2-methyl-6-(3-methylimidazo[1,5-a]pyridin-6-yl)-N4-[(1S or 1R)-2-methyl-1-[2-(trifluoromethyl)-1H-imidazol-4-yl]propyl]-1,3,5-triazine-2,4-diamine]",1 to 500 nM
23,"Cc1nc([C@H](Nc2nc(N)nc(-c3ccc4cnc(C)n4c3)n2)C(C)C)c[nH]1 (single isomer, unassigned) [Example 155A, 6-(3-methylimidazo[1,5-a]pyridin-6-yl)-N4-[(1S or 1R)-2-methyl-1-(2-methyl-1H-imidazol-4-yl)propyl]-1,3,5-triazine-2,4-diamine]",500 to 1000 nM
24,"Cc1ncc2ccc(-c3nc(N)nc(N[C@H](c4c[nH]c(C(F)(F)F)n4)C(C)C)n3)cn12 (single isomer, unassigned) [Example 142B, 6-(3-methylimidazo[1,5-a]pyridin-6-yl)-N2-[(1R or 1S)-2-methyl-1-[2-(trifluoromethyl)-1H-imidazol-4-yl]propyl]-1,3,5-triazine-2,4-diamine]",1 to 500 nM
